Experimental data as given in the Bradley open melting point set (2014).
“And” between values parts separate entries of the source, which are not always exact repeats. Equal entries are not always repeated.

melting point | SMILES
173 °C | CC(C)(C)OC(=O)Nc1ccc(C#N)cn1 [2-(boc-amino)-5-cyanopyridine]
112 °C | NC(=O)c1cc(F)ccc1F [2,5-difluorobenzamide]
147 °C | Nc1ccc(C/C(=N/O)c2ccc(N)cc2)cc1 [(1Z)-1,2-bis(4-aminophenyl)ethanone oxime]
181 °C | OB(O)c1ccc(Cl)cc1C(F)(F)F [4-chloro-2-(trifluoromethyl)benzeneboronic acid]
34 °C | Clc1cc(Br)ccc1I [4-bromo-2-chloro-1-iodobenzene]
36 °C | CC(C)OP(=O)(CCP(=O)(OC(C)C)OC(C)C)OC(C)C [tetraisopropyl 1,2-ethylenediphosphonate]
12 °C | C1COCCO1 [1,4-dioxane]
45 °C | CCOC(=O)c1ccc(C(=O)OCC)cc1 [diethyl terephthalate]
72 °C | COc1ccc(C(=O)c2ccc(OC)cc2OC)cc1 [2,4,4'-trimethoxybenzophenone]
245 °C | OB(O)c1cc(Cl)cc(Cl)c1Cl [2,3,5-trichlorobenzeneboronic acid]
-78 °C | CCCC(C)=O [2-pentanone]
120 °C | Oc1ccc(OCc2ccccc2)cc1 [4-benzyloxyphenol]
196 °C | OB(O)c1ccc(OCc2ccccc2)cc1 [4-benzyloxybenzeneboronic acid]
-34 °C | CCOC(=O)c1ccccc1 [Ethyl benzoate]
102 °C | CCCCCCCCCCCCCCCCCC(=O)O[C@H]1[C@H](O[C@@H]2[C@@H](C)[C@H](O[C@H]3C[C@@](C)(OC)[C@@H](O)[C@H](C)O3)[C@@H](C)C(=O)O[C@H](CC)[C@@](C)(O)[C@H](O)[C@@H](C)C(=O)[C@H](C)C[C@@]2(C)O)O[C@H](C)C[C@@H]1N(C)C
129 °C | Clc1ccc(NC(/N)=NC(N)=NC(C)C)cc1 [Proguanil]
19 °C | COc1ccc(OC)c(C(C)=O)c1 [2',5'-dimethoxyacetophenone]
130 °C | O=C(O)Cc1cccc(I)c1 [3-iodophenylacetic acid]
96 °C | OCc1cccc(B(O)O)c1 [3-(hydroxymethyl)benzeneboronic acid]
10 °C | O=Cc1ccccc1Cl [2-chlorobenzaldehyde]
58 °C | CCCCCCCCCCCCCCCCCO [1-heptadecanol]

melting point | SMILES
-127 °C | CC1CCCCC1 [Methylcyclohexane]
6 °C | Cc1cc(Br)ccc1Br [2,5-dibromotoluene]
-30 °C and -29.7 °C | CCCCCCCCCC [Decane]
35 °C | Clc1cccc(I)c1Cl [1,2-dichloro-3-iodobenzene]
41 °C | CCCCCCCCCCCCS(=O)(=O)Cl [1-dodecanesulfonyl chloride]
170 °C | COc1ccc(Cl)cc1C(=O)NCCc1ccc(S(=O)(=O)NC(=O)NC2CCCCC2)cc1 [Glibenclamide]
97 °C | Cc1ccc2c(c1)no[n+]2[O-] [5-methylbenzofuroxan]
113 °C | CN1CCC(=C2c3ccccc3C=Cc3ccccc32)CC1 [cyproheptadine]
191 °C | Cc1cc(=O)oc2cc(O)ccc12 [7-Hydroxy-4-methyl-2H-chromen-2-one]
107 °C | Cc1noc(C)c1B(O)O [3,5-dimethylisoxazole-4-boronic acid]
131 °C and 130 °C | O=C4\C=C2/[C@]([C@H]1CC[C@@]3([C@@H](C(=O)C)CC[C@H]3[C@@H]1CC2)C)(C)CC4 [progesterone]
282 °C | CCC1(c2ccccc2)C(=O)NCNC1=O [primidone]
108 °C | N#CCC(=O)NN [cyanoacetic acid hydrazide]
170 °C | CC(=O)Nc1ccc(O)cc1 [acetaminophen]
144 °C | CCOC(=O)c1c[nH]nc1C(F)(F)F [ethyl 3-trifluoromethyl-1h-pyrazole-4-carboxylate]
99 °C | CCOC(=O)C1=C(C(=O)OCC)C(C)N=N1 (stereo not given) [diethyl 5-methyl-1H-pyrazole-3,4-dicarboxylate]
47 °C | N#CCOc1ccc(Cl)cc1Cl [2,4-dichlorophenoxyacetonitrile]
-91.5 °C | CCCCC=O [Valeraldehyde]
136 °C | CN(C)c1ccc(/C=C/C=O)cc1 [4-dimethylamino cinnamaldehyde]
346 °C | O=C(O)c1cc(=O)[nH]c(=O)[nH]1 [Orotic Acid]
-97.2 °C | C1=CCC=C1 [Cyclopenta-1,3-diene]

melting point | SMILES
91 °C | N#CCS(=O)(=O)c1ccc(F)cc1 [4-fluorophenylsulfonylacetonitrile]
253 °C | O=C(O)c1ccc(Br)cc1 [p-bromobenzoic_acid]
156 °C | CCOC(=O)Nc1ccc2c(c1)N(C(=O)CCN1CCOCC1)c1ccccc1S2 [moricizine]
93 °C | OB(O)C1CC1 [cyclopropylboronic acid]
157 °C | NCCCCC(=O)O [5-aminovaleric acid]
86 °C | CC(=O)c1sccc1N [2-acetyl-3-aminothiophene]
190 °C | NS(=O)(=O)c1c(F)cccc1F [2,6-difluorobenzenesulfonamide]
57 °C | CC(=O)Oc1ccccc1O [catechol_monoacetate_(ortho)]
150 °C | O=C(O)COc1ccccc1Cl [2-chlorophenoxyacetic acid]
154 °C | OB(O)c1cc(Cl)cnc1Cl [2,5-dichloropyridine-3-boronic acid]
169 °C | O=C(O)[C@H](O)[C@@H](O)C(=O)O [L-tartaric acid]
123 °C | Oc1ccc(Cl)c2cccnc12 [5-chloro-8-hydroxyquinoline]
116 °C | CC(=O)c1ccccc1C(=O)O [2-acetylbenzoic_acid]
119 °C | FC1(F)C2=CC=CC=C1C=CC=C2 [11,11-Difluoro-1,6-methano[10]annulene]
84 °C | CCOC(=O)c1csnn1 [ethyl 1,2,3-thiadiazole-4-carboxylate]
192 °C | O=c1[nH]c(=O)n([C@@H]2O[C@H](CO)[C@@H](O)[C@H]2O)cc1Br [5-bromouridine]
-75 °C | CCC(C)c1ccccc1 (stereo not given) [sec-butylbenzene]
128 °C and 126 °C | CC(C)(CO)CO [2,2-dimethyl-1,3-propanediol]
18 °C | O=C(Cl)c1cccc2ccccc12 [1-naphthoyl chloride]
187 °C | NC(=O)C12CC3CC(CC(C3)C1)C2 [adamantane-1-carboxamide]

SMILES | melting point
C=CCBr [allyl bromide] | -119 °C
CCC(=O)OC(=O)CC [propionic anhydride] | -44 °C
O=C(CCCN1CCC(n2c(=O)[nH]c3ccccc32)CC1)c1ccc(F)cc1 [benperidol] | 171 °C
Nc1cccc([N+](=O)[O-])c1 [m-nitroaniline] | 114 °C
C=CCN=C=S [allyl isothiocyanate] | -80 °C
c1ccc2c(c1)oc1ccccc12 [Dibenzofuran] | 82 °C
c1ccc(-c2ccc(-c3ccccc3)cc2)cc1 [1,1':4',1''-Terphenyl] | 213 °C
O=C1c2ccccc2CC1Br (stereo not given) [2-bromo-1-indanone] | 38 °C
